Experimental data published in patent US20260325654A1, “METHODS AND COMPOSITIONS FOR TARGETED PROTEIN DEGRADATION” (Ranok Therapeutics (Hangzhou) Co. Ltd., priority 2023, published 2026).

What was measured:
AGS = experiment: CellTiter-Glo Reagent cancer cell line proliferation assay, AGS; type: cell-based, human; conditions: Homo sapiens, 24 h, KRAS(G12D) heterozygous
Procedure, shortened: (§1)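 Cells were seeded at 4,000 per well, grown 24 hr at 37° C./5% CO2, then exposed 24 hr to 3-fold dilutions from 20 μM to 1.02 nM (0.5% DMSO final). Viability was read with CellTiter-Glo luminescence, and IC50 values were calculated.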

A427 = experiment: CellTiter-Glo Reagent cancer cell line proliferation assay, A427; type: cell-based; conditions: Homo sapiens, A-427; A427, KRAS(G12D) heterozygous, 24 hr
Text: (§2) The following cancer cell lines were employed: • AsPC-1 human pancreatic adenocarcinoma, homozygous KRAS(G12D), (ATCC, #CRL-1682); A-427 human lung carcinoma, heterozygous KRAS(G12D), (ATCC, #HTB-53); AGS human gastric adenocarcinoma, heterozygous KRAS(G12D), (ATCC, #CRL-1739); GP2D human colon adenocarcinoma, heterozygous KRAS(G12D), (Sigma Aldrich, 95090714); SW1990 human pancreatic adenocarcinoma, homozygous KRAS(G12D), (ATCC, #CRL2172); LU65A human lung giant cell carcinoma, heterozygous KRAS(G12C), (JCRB Cell Bank, #JCRB0054); NCIH727 human lung carcinoid, heterozygous KRAS(G12V), (ATCC, #CRL-5815); MKN1 human gastric adenosquamous carcinoma KRAS (wt), (JCRB Cell Bank, #JCRB0252). Cell lines were cultured according to ATCC, JCRB and Sigma Aldrich recommendations.
(§3) Cells were plated in 96-well tissue culture plates at 4,000 cells/well and incubated at 37° C./5% CO2 for 24 hr in 100 μl of media. 3-fold serial dilutions of each test compound were prepared ranging from 20 μM to 1.02 nM. Cells were then treated with test compounds at various concentrations with a final concentration of 0.5% DMSO/well, and then incubated at 37° C./5% CO2 for 24 hr. 100 μl of CellTiter-Glo® Reagent (Promega Corporation, Madison, WI) was added to each well and processed according manufacturer's protocol. Results were analyzed and IC50-values were calculated in GraphPad 7 software.

KRAS(G12D)/SOS1 = target: T1, KRAS(G12D)/SOS1 (Homo sapiens, UniProt P01116, G12D); experiment: KRAS(G12D)/SOS1 Homogeneous Time-Resolved Fluorescence (HTRF) Assay; type: binding; conditions: absence of GTP, 4° C., 3 hr
T1 construct: purchased Cisbio 63ADK000CB16PEG
Description: 3-fold serial dilutions of each test compound were prepared ranging from 20 μM to 1.02 nM. The test compound was mixed and incubated with reaction components, incubated in a sealed plate at 4° C. for 3 hr and fluorescence was measured using a PerkinElmer Envision plate reader. The % inhibition and IC50 values (the concentration at which 50% of the maximal inhibition occurs) were calculated and plotted using GraphPad Prism 7 software.

ASPC-1 = experiment: CellTiter-Glo Reagent cancer cell line proliferation assay, ASPC-1; type: cell-based; conditions: Homo sapiens, ASPC1; ASPC-1, KRAS(G12D) homozygous, 24 hr
Text: as §2, §3

SW1990 = experiment: CellTiter-Glo Reagent cancer cell line proliferation assay, SW1990; type: cell-based; conditions: Homo sapiens; SW1990, KRAS(G12D) homozygous, 24 hr
Text: as §2, §3

KRAS(G12D) = KRAS(G12D) (Homo sapiens, UniProt P01116, G12D); experiment: cell-based; type: cell-based; set-up: Cell lines SW1990 and GP2D that express KRAS(G12D); host or cells: SW1990; conditions: for Dmax: SW1990, read-out: WB data SW1990 DMax; for DC50: read-out: WB data SW1990 DC50, SW1990, KRAS degradation, 24 hr
Procedure, shortened: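 Cancer cell lines treated with compound, lysed in RIPA with protease/phosphatase inhibitors, and protein-normalized lysates resolved by SDS-PAGE and western blotted with anti-KRAS and anti-β-actin. Fluorescence imaging quantified KRAS levels; DC50 and DCmax derived from concentration-response fits.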

GP2D = experiment: CellTiter-Glo Reagent cancer cell line proliferation assay, GP2D; type: cell-based; conditions: Homo sapiens, KRAS(G12D) heterozygous, 24 hr
Procedure, shortened: as §1

Sequence of KRAS(G12D) (P01116 1-188 isoform P01116-2 G12D): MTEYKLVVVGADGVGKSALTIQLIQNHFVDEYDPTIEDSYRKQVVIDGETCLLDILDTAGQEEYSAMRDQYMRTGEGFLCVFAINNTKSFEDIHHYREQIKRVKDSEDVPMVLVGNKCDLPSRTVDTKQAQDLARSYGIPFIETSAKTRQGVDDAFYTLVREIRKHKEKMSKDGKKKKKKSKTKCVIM
T1 sequence (P01116 1-188 isoform P01116-2 G12D): as above

Compound	IC50 (AGS) [nM]	IC50 (A427) [nM]	IC50 (KRAS(G12D)/SOS1) [nM]	IC50 (ASPC-1) [nM]	IC50 (SW1990) [nM]	Dmax (KRAS(G12D)) [%]	DC50 (KRAS(G12D)) [nM]	IC50 (GP2D) [nM]
C#Cc1cccc2cccc(-c3ncc4c(N5CC6CCC(C5)N6)nc(OC[C@H]5CC[C@@H](CN6CCN(CC7CCN(c8cc9c(cc8F)C(=O)C(N8CCC(=O)NC8=O)C9=O)CC7)CC6)N5C)nc4c3F)c12 (some centres unmarked) [Compound 25]	> 1000	> 1000	< 100					
COc1nc(-c2cc(O)cc3ccccc23)c(F)c2nc(OCC3(CN4CCN(CC5CCN(c6ccc7c(c6)C(=O)N(C6CCC(=O)NC6=O)C7=O)CC5)CC4)CC3)nc(C3CC4CCC(C3)N4)c12 (centres unmarked) [Compound 36]	100 to 1000	100 to 1000	< 100	100 to 1000	100 to 1000			
C#Cc1cccc2cc(O)cc(-c3ncc4c(N5CC6CCC(C5)N6)nc(OCC5(CN6CCN(CC7CCN(c8ccc9c(c8)C(=O)N(C8CCC(=O)N(C)C8=O)C9=O)CC7)CC6)CC5)nc4c3F)c12 (centres unmarked) [Compound 42]	< 100	100 to 1000	< 100		100 to 1000	10 to 50	> 1000	
CN1C[C@H](N2CCC(C(=O)NCCOc3ccc4c(c3)C(=O)N(C3CCC(=O)NC3=O)C4=O)CC2)C[C@@H]1COc1nc(N2CC3CCC(C2)N3)c2cnc(-c3cc(O)cc4ccccc34)c(F)c2n1 (some centres unmarked) [Compound 23]	> 1000	> 1000	< 100					

Next, values leading:

IC50 (AGS) [nM]	IC50 (A427) [nM]	IC50 (KRAS(G12D)/SOS1) [nM]	IC50 (ASPC-1) [nM]	IC50 (SW1990) [nM]	Dmax (KRAS(G12D)) [%]	DC50 (KRAS(G12D)) [nM]	IC50 (GP2D) [nM]	Compound
< 100	> 1000	< 100	100 to 1000	100 to 1000	10 to 50	100 to 1000	< 100	C#Cc1c(F)ccc2cc(O)cc(-c3nc(OC)c4c(N5CC6CCC(C5)N6C(=O)C(F)(F)F)nc(OCC5(CN6CCC(CN7CCN(c8ccc9c(c8)CN(C8CCC(=O)NC8=O)C9=O)CC7)CC6)CC5)nc4c3F)c12 (centres unmarked) [Compound 63]
< 100	100 to 1000	< 100	< 100	< 100	> 50	< 100	< 100	C#Cc1cccc2cc(O)cc(-c3ncc4c(N5CC6CCC(C5)N6)nc(OCC5(CN6CCN(CC7CCN(c8ccc9c(c8)n(C)c(=O)n9C8CCC(=O)NC8=O)CC7)CC6)CC5)nc4c3F)c12 (centres unmarked) [Compound 64]
< 100	< 100	< 100	< 100	< 100	> 50	< 100	< 100	C#Cc1c(F)ccc2cc(O)cc(-c3ncc4c(N5CC6CCC(C5)N6)nc(OCC5(CN6CCN(CC7CCN(c8ccc9c(c8)CN(C8CCC(=O)NC8=O)C9=O)CC7)CC6)CC5)nc4c3F)c12 (centres unmarked) [Compound 43]
